Test results from patent publication US20220186188A1, “Method for Obtaining Pancreatic Progenitor Cells and Pancreatic Islet Beta Cells By Means of Differentiation of Human Pluripotent Stem Cells” (Asia Regenerative Medicine, Ltd., priority 2019, published 2022).

How the values were obtained:
[1] = test system: pancreatic progenitor cells differentiated from human induced pluripotent stem cells; assay: Flow cytometry detection of PDX1 in the pancreatic progenitor cell stage (human induced pluripotent stem cells); type: cell-based; settings: 2 μM inhibitor in pancreatic progenitor cell medium, 5 days, compared with control group without WNT inhibitor
Procedure: a pancreatic progenitor cell medium was prepared, the medium in step 1) was replaced with the pancreatic progenitor cell medium, and the cells were cultured in a carbon dioxide incubator at 37 degrees Celsius for 5 days, during which the medium was replaced every day, wherein the composition of the pancreatic progenitor cell medium was: with an MCDB131 medium as a basic medium, and the following components at the working concentrations were further included: 0.5% of bovine serum albumin (BSA), 1.5 g/L of sodium bicarbonate, 1×glutamine (GlutaMAX), 10 mM glucose, […] vitamin C, 1×insulin-transferrin-selenium-ethanolamine additive (ITS-X), 50 ng/ml of fibroblast growth factor (KGF), 0.5 μM SANT1 (with smo as an inhibitor target), 100 nM retinoic acid (TTNPB), 500 nM phorbol 12,13-dibutyrate (PDBu), 2 μM ALK inhibitor (K02288), and 2 μM WNT signaling pathway inhibitor XAV-939 (not added in a control group), with the concentrations all being final concentrations. […]

[2] = test system: pancreatic progenitor cells and pancreatic islet β cells differentiated from human induced pluripotent stem cells; assay: Immunofluorescence detection of PDX1 and PDX1/INS proteins (human induced pluripotent stem cells); type: cell-based
From the text: […]

[3] = 2 μM inhibitor in pancreatic progenitor cell stage

Compound: Oc1nc(-c2ccc(C(F)(F)F)cc2)nc2c1CSCC2 [XAV-939]
- PDX1-positive pancreatic progenitor cells (flow cytometry) [1]: significantly increased
- number of insulin INS-positive and PDX1-co-stained pancreatic islet β cells in the mature pancreatic islet β cell stage ([2]; 2 μM inhibitor added in pancreatic progenitor cell stage, immunofluorescence): significantly increased
- PDX1-positive pancreatic progenitor cells (immunofluorescence) [2, 3]: significantly increased
- cell growth (total cell number by DAPI) [2, 3]: did not affect the cell growth
